Results: patent US20250270512A1, “ADDITIVE FOR UNDIFFERENTIATION MAINTAINING MEDIUM” (AJINOMOTO CO., INC., priority 2017, published 2025)
“Also recorded” adds a separate entry of the source.

What was measured:
Type in all cases: cell-based
[1] = system: human induced pluripotent stem cells 201B7; assay: Proliferation promoting effect of L-tryptophan metabolites in mTeSR1, cell coating rate by IncuCyte, 201B7; details: mTeSR1 medium, final 50, 100, 200, 500, 1000 μM, 0-120 hr
Protocol: L-kynurenine (Sigma-Aldrich Co. LLC: […]) was added at a final concentration of 50, 100, 200, 500, 1000 μM to mTeSR1 medium and the proliferation promoting effect was examined using the prepared medium. Y-27632 was added at a final concentration of 10 μM for 2 days after seeding. As a basement membrane matrix, Matrigel (Japan Becton, Dickinson and Company) was applied on a 6 well plate and 20,000 cells were single cell seeded per well. Two days after the cell seeding, evaluation was performed using the medium free of Y-27632 and prepared as mentioned above. The time of L-kynurenine addition was taken as 0 and the cell coating rate was measured using IncuCyte at 0, 24, 48, 72, 96 and 120 hr later. […] Kynurenic acid (Sigma-Aldrich Co. LLC: […]) was added at a final concentration of 50, 100, 200, 500, 1000 μM to mTeSR1 medium and the proliferation promoting effect was examined using the prepared medium. Y-27632 was added at a final concentration of 10 μM for 2 days after seeding. As a basement membrane matrix, Matrigel (Japan Becton, Dickinson and Company) was applied on a 6 well plate and 20,000 cells were single cell seeded per well. […] The time of kynurenic acid addition was taken as 0 and the cell coating rate was measured using IncuCyte at 0, 24, 48, 72, 96 and 120 hr later.

[2] = system: human induced pluripotent stem cells 201B7; assay: Proliferation promoting effect of L-tryptophan, cell coating rate by IncuCyte, 201B7; details: final 44-1408 μM, 24-120 hr after addition
Protocol: First, the proliferation promoting effect of L-tryptophan on induced pluripotent stem cells (iPS cells) was evaluated using 3 kinds of commercially available media. As the human iPS cell, 201B7 strain purchased from iPS Academia Japan, Inc. was used and cultured under the conditions of 5% CO2/37° C.
L-tryptophan (Sigma-Aldrich Co. LLC: T8941) was added to the media of Essential-8 (Life Technologies Inc.: A1517001), mTeSR1 (STEM CELL Technologies Inc.: 05850), TeSR2 (STEM CELL Technologies Inc.: 05860) at a given concentration, used for culture and the effect thereof was examined.
(§1) L-tryptophan (Sigma-Aldrich Co. LLC: T8941) was added at a final concentration of 44, 176, 352, 704, 1408 μM to Essential-8, mTeSR1, TeSR2 media and the proliferation promoting effect of L-tryptophan was examined using the prepared media. A 6 well plate coated with Matrigel (Japan Becton, Dickinson and Company) as a basement membrane matrix was prepared and 13,000 cells were single cell seeded per well. The next day of cell seeding, evaluation was performed using the medium prepared as mentioned above. The culture period was set to 6 days, the time of L-tryptophan addition was set to 0 and the cell coating rate was measured using IncuCyte at 24, 48, 72, 96 and 120 hr later. As the medium to be used when seeding, a medium without addition of Y-27632 at a final concentration of 10 μM was used and culturing was performed.

[3] = system: human induced pluripotent stem cells 253G4; assay: Proliferation promoting effect of L-tryptophan, cell coating rate by IncuCyte, 253G4; details: mTeSR1 medium, final 44-1408 μM, 24-120 hr
Protocol: (§2) Then, the proliferation promoting effect of L-tryptophan was evaluated using other strain 253G4 of human induced pluripotent stem cell (iPS cell) and human embryonic stem cell H9 strain. As the medium, mTeSR1 (STEM CELL Technologies Inc.: 05850) was used and culturing was performed under 5% CO2/37° C. conditions.
(§3) L-tryptophan (Sigma-Aldrich Co. LLC: T8941) was added to mTeSR1 medium (STEM CELL Technologies Inc.: 05850) at a given concentration, used for culture and the effect thereof was examined.
as §1, with “to mTeSR1 medium” for “to Essential-8, mTeSR1, TeSR2 media”, “prepared medium.” for “prepared media.”, “and 40,000 253G4 cells and 10,000 H9” for “and 13,000”, “performed by replacing the medium with” for “performed using”

[4] = system: human embryonic stem cells H9; assay: Proliferation promoting effect of L-tryptophan, cell coating rate by IncuCyte, H9; details: mTeSR1 medium, final 44-1408 μM, 24-120 hr
Protocol: as §2, §3
as §1, with “to mTeSR1 medium” for “to Essential-8, mTeSR1, TeSR2 media”, “prepared medium.” for “prepared media.”, “and 40,000 253G4 cells and 10,000 H9” for “and 13,000”, “performed by replacing the medium with” for “performed using”

[5] = system: human embryonic kidney cell line HEK293T cells; assay: Proliferation promoting effect of L-tryptophan, cell coating rate by IncuCyte, HEK293T; details: 293T; DMEM with 10% fetal bovine serum; final 44-1408 μM; 24-120 hr
Protocol: Next, the proliferation promoting effect of L-tryptophan was evaluated using human embryonic kidney cell line HEK293T cells. As the medium, DMEM medium (Thermo Fisher Scientific K. K.: 11965) added with 10% fetal bovine serum was used and culturing was performed under 5% CO2/37° C. conditions.
L-tryptophan (Sigma-Aldrich Co. LLC: T8941) was added at a given concentration to DMEM medium (Thermo Fisher Scientific K.K.: 11965) added with 10% fetal bovine serum, used for culture and the effect thereof was examined.
L-tryptophan (Sigma-Aldrich Co. LLC: T8941) was added at a final concentration of 44, 176, 352, 704, 1408 μM to DMEM medium (Thermo Fisher Scientific K.K.: 11965) added with 10% fetal bovine serum and the proliferation promoting effect of L-tryptophan was examined using the prepared medium. A 6 well plate was prepared and 10,000 cells were single cell seeded per well. The next day of cell seeding, evaluation was performed by replacing the medium with the medium prepared as mentioned above. The culture period was set to 6 days, the time of L-tryptophan addition was set to 0 and the cell coating rate was measured using IncuCyte at 24, 48, 72, 96 and 120 hr later.

[6] = system: human iPS cell 201B7 strain; assay: Expression of undifferentiated marker after addition of high concentration of L-tryptophan; details: data not shown

Structure (SMILES) | cell coating rate (proliferation promoting effect) [1] | cell coating rate (proliferation promoting effect) ([2]; Essential-8 medium) | cell coating rate (proliferation promoting effect) ([2]; TeSR2 medium) | cell coating rate (proliferation promoting effect) ([2]; mTeSR1 medium) | cell coating rate (proliferation promoting effect) [3] | cell coating rate (proliferation promoting effect) [4] | cell coating rate (proliferation promoting effect) [5] | expression of undifferentiated marker (OCT, Nanog, alkaline phosphatase) [6]
Nc1ccccc1C(=O)C[C@H](N)C(=O)O [L-kynurenine] | showed a cell proliferation promoting effect in the L-kynurenine 50-500 μM addition group | – | – | – | – | – | – | –
NC(Cc1c[nH]c2ccccc12)C(=O)O [L-tryptophan, 2-amino-3-(indolyl)propionic acid] | – | showed a proliferation promoting effect in an L-tryptophan concentration dependent manner; also recorded: showed an L-tryptophan concentration-dependent effect of promoting proliferation | showed a proliferation promoting effect in an L-tryptophan concentration dependent manner; also recorded: showed an L-tryptophan concentration-dependent effect of promoting proliferation | showed a proliferation promoting effect in an L-tryptophan concentration dependent manner; also recorded: showed an L-tryptophan concentration-dependent effect of promoting proliferation | concentration-dependent proliferation promoting effect of L-tryptophan was also confirmed; also recorded: showed an L-tryptophan concentration-dependent effect of promoting proliferation | concentration-dependent proliferation promoting effect of L-tryptophan was also confirmed; also recorded: showed an L-tryptophan concentration-dependent effect of promoting proliferation | concentration-dependent proliferation promoting effect of L-tryptophan was not confirmed; also recorded: did not show an L-tryptophan concentration-dependent effect of promoting proliferation | not influenced
O=C(O)c1cc(=O)c2ccccc2[nH]1 [kynurenic acid] | showed a cell proliferation promoting effect in the kynurenic acid 50-500 μM addition group | – | – | – | – | – | – | –
